The values below come from patent US20230312542A1, “HYDROXYPYRROLIDINE DERIVATIVE AND MEDICINAL APPLICATION THEREOF” (MITSUBISHI TANABE PHARMA CORPORATION, priority 2020, published 2023).

By Kd is commonly meant the constant that tells how readily two partners part at equilibrium.

VHL (co-expressed with Elongin B and Elongin C), sequence (P40337 whole entry, looked up): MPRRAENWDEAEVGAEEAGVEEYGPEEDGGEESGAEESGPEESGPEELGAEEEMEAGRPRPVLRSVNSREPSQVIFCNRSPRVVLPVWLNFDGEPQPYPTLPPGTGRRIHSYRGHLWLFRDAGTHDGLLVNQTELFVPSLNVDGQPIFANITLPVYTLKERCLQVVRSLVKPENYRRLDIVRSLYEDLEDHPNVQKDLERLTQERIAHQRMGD
VHL (co-expressed with Elongin B and Elongin C), sequence (Q15370 whole entry partner, looked up): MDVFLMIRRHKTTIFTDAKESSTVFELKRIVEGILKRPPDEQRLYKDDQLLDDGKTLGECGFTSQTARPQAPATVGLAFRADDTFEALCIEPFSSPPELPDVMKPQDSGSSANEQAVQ
VHL (co-expressed with Elongin B and Elongin C), sequence (Q15369 whole entry partner, looked up): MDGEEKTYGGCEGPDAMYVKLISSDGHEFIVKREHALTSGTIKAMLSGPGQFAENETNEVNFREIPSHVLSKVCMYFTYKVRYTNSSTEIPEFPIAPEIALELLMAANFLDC

In this assay the target is VHL (co-expressed with Elongin B and Elongin C) (Homo sapiens (Human), UniProt P40337). Put plainly: Measurement of intermolecular interactions using surface plasmon resonance (Biacore T200), Kd value for VHL. The following applies: SPR, immobilized VHL, 25° C.; read-out: Kd. The assay is classed as binding. The source says:
As the device, Biacore T200 (manufactured by GE Healthcare) was used. VHL was obtained by co-expressing Elongin B and Elongin C with a Twin-Strep-tag added to the N-terminus. As the sensor chip, Sensor chip CM5 (manufactured by GE Healthcare) was used. First, Strep-Tactin XT (manufactured by GE Healthcare) was immobilized on the sensor chip by amine coupling. Thereafter, VHL was immobilized using the affinity of Strep-Tactin XT and Twin-Strep-tag, and VHL was further immobilized on the sensor chip by amine coupling.
As the running buffer, a mixed solution of 20 mM HEPES pH 7.5, 150 mM NaCl, 1 mM TCEP, 0.005% Tween 20, and 2% DMSO was used. […] The Contact time and the Dissociation time were determined according to the properties of the compounds. For many compounds, 60 seconds and 120 seconds were respectively used.
(In SPR one partner is held on a chip, and binding of the other changes the refractive index at the surface.)
Regarding `CNC(=O)c1ccccc1-c1cnc([C@@H]2C[C@@H](O)CN2C(=O)C(c2cc(OC)no2)C(C)C)[nH]1` (stereo partly drawn) [Example 64, 2-[2-[(2S,4R)-4-hydroxy-1-[2-(3-methoxy-1,2-oxazol-5-yl)-3-methylbutanoyl]pyrrolidin-2-yl]-1H-imidazol-5-yl]-N-methylbenzamide], the Kd lay in the range of 1000 to 10000 nM.

In the case of `CC(=O)N[C@H](C(=O)N1C[C@H](O)C[C@H]1c1nc(C(=O)N(C)Cc2ccc3ccccc3c2)c[nH]1)C(C)(C)C` [Example 30, 2-[(2S,4R)-1-[(2S)-2-acetamido-3,3-dimethylbutanoyl]-4-hydroxypyrrolidin-2-yl]-N-methyl-N-(naphthalen-2-ylmethyl)-1H-imidazole-4-carboxamide], the Kd fell in the range of 1000 to 10000 nM.

Consider `COc1cc(C(C(=O)N2C[C@H](O)C[C@H]2c2nc(C(=O)N(C)[C@H](C)C(=O)NCc3ccccc3)c[nH]2)C(C)C)on1` (stereo partly drawn) [Example 159, N-[(1R)-2-(benzylamino)-1-methyl-2-oxo-ethyl]-2-[(2S,4R)-4-hydroxy-1-[2-(3-methoxyisoxazol-5-yl)-3-methylbutanoyl]pyrrolidin-2-yl]-N-methyl-1H-imidazole-4-carboxamide], for which the Kd is below 1000 nM.

Regarding `COc1cc(C(C(=O)N2C[C@H](O)C[C@H]2c2nc(C(=O)N3CC(c4ccccc4)C3)c[nH]2)C(C)C)on1` (stereo partly drawn) [Example 108, 1-[(2S,4R)-4-hydroxy-2-[4-(3-phenylazetidine-1-carbonyl)-1H-imidazol-2-yl]pyrrolidin-1-yl]-2-(3-methoxyisoxazol-5-yl)-3-methylbutan-1-one], the equilibrium dissociation constant (Kd) is below 1000 nM.

Take `CC(=O)N[C@H](C(=O)N1C[C@H](O)C[C@H]1c1nc(C(=O)N(C)Cc2cccc3ccccc23)c[nH]1)C(C)(C)C` [Example 31, 2-[(2S,4R)-1-[(2S)-2-acetamido-3,3-dimethylbutanoyl]-4-hydroxypyrrolidin-2-yl]-N-methyl-N-(naphthalen-1-ylmethyl)-1H-imidazole-4-carboxamide]: the Kd is 1000 to 10000 nM.

Regarding `COc1cc(C(C(=O)N2C[C@H](O)C[C@H]2c2nc(C(=O)N3CCC(c4ccc(C)cn4)CC3)c[nH]2)C(C)C)on1` (stereo partly drawn) [Example 144, 1-[(2S,4R)-4-hydroxy-2-[4-[4-(5-methyl-2-pyridyl)piperidine-1-carbonyl]-1H-imidazol-2-yl]pyrrolidin-1-yl]-2-(3-methoxyisoxazol-5-yl)-3-methylbutan-1-one], the Kd lay in the range of 1000 to 10000 nM.

For `COc1cc(C(C(=O)N2C[C@H](O)C[C@H]2c2nc(C(=O)N(C)Cc3ccc(-c4scnc4C)cc3)c[nH]2)C(C)C)on1` (stereo partly drawn) [Example 54, 2-[(2S,4R)-4-hydroxy-1-[2-(3-methoxy-1,2-oxazol-5-yl)-3-methylbutanoyl]pyrrolidin-2-yl]-N-methyl-N-[[4-(4-methyl-1,3-thiazol-5-yl)phenyl]methyl]-1H-imidazole-4-carboxamide], the Kd was below 1000 nM.

For the molecule `COc1cc(C(C(=O)N2C[C@H](O)C[C@H]2c2nccn2Cc2ccccc2Oc2ccccc2)C(C)C)on1` (stereo partly drawn) [Example 69, 1-[(2S,4R)-4-hydroxy-2-[1-[(2-phenoxyphenyl)methyl]imidazol-2-yl]pyrrolidin-1-yl]-2-(3-methoxy-1,2-oxazol-5-yl)-3-methylbutan-1-one], the Kd is 10000 to 50000 nM.

Regarding `CC(=O)N[C@H](C(=O)N1C[C@H](O)C[C@H]1c1nc(C(=O)N(C)Cc2cccc(Cl)c2)c[nH]1)C(C)(C)C` [Example 15, 2-[(2S,4R)-1-[(2S)-2-acetamido-3,3-dimethylbutanoyl]-4-hydroxypyrrolidin-2-yl]-N-[(3-chlorophenyl)methyl]-N-methyl-1H-imidazole-4-carboxamide], the Kd was 1000 to 10000 nM.

As to `COc1ccc(CN(C)C(=O)c2c[nH]c([C@@H]3C[C@@H](O)CN3C(=O)[C@@H](NC(C)=O)C(C)(C)C)n2)cc1` [Example 25, 2-[(2S,4R)-1-[(2S)-2-acetamido-3,3-dimethylbutanoyl]-4-hydroxypyrrolidin-2-yl]-N-[(4-methoxyphenyl)methyl]-N-methyl-1H-imidazole-4-carboxamide], the Kd is 1000 to 10000 nM.
